# Experimental data from patent US20200399262A1, “COMPOUNDS FOR INHIBITING PROTEIN DEGRADATION AND METHODS OF USE THEREOF IN THE TREATMENT OF CANCER” (PI Therapeutics Ltd, priority 2018, published 2020).
# What was measured:
# Experiment in all cases: Cell viability panel, CyQUANT Direct
# Format in all cases: cell-based
# CAKI-1 = conditions: Homo sapiens, Renal cancer, 48 hours, read-out: Compound EC50
# Experimental: (§1) Cell viability panel studies. Cells were diluted in the corresponding ATCC recommended medium and dispensed in a 384-well plate, depending on the cell line used, at a density of 200-6400 cells per well. For each used cell line, the optimal cell density was used. Compound was serially diluted and 8 concentration (0.04-32 μM) were added to the cells for 72 h exposure. At t=end, of ATPlite 1Step™ (PerkinElmer) were used to calculate cell viability. Cell lines marked with asterisk were seeded 24 h prior to treatment in 96-well plates at the density range of 5,000-40,000 cells/well, according to duplication rate, in RPMI 1640 medium containing 10% fetal bovine serum and 2 mM L-glutamine. Compounds were diluted from 10 mM DMSO stock and treatment was applied at the range of 0.04-1 μM. Following incubation at 37° C. for 48 hours with increasing concentrations of the compounds, viability was determined with CyQUANT® Direct Assay Kit (Invitrogen). Output intensities were normalized to values after treatment with DMSO alone, and EC50 values were calculated using the absorbance measurements [time zero, (Tz), growth control, (C), plus the test growth at the four drug concentration levels (Ti)] as follows: [(Ti−Tz)/(C−Tz)]×100 for concentrations for which Ti>/=Tz; [(Ti−Tz)/Tz]×100 for concentrations for which Ti−<Tz.
# EKVX = conditions: Homo sapiens, Lung cancer, 48 hours, read-out: Compound EC50
# Experimental: as §1
# HCC-2998 = conditions: Homo sapiens, Colon cancer, 48 hours, read-out: Compound EC50
# Experimental: as §1
# HOP-62 = conditions: Homo sapiens, Lung cancer, 48 hours, read-out: Compound EC50
# Experimental: as §1
# HOP-92 = conditions: Homo sapiens, Lung cancer, 48 hours, read-out: Compound EC50
# Experimental: as §1
# HT-29 = conditions: Homo sapiens, Colon cancer, 48 hours, read-out: Compound EC50
# Experimental: as §1
# IGR-OV1 = conditions: Homo sapiens, IGROV-1, Ovarian cancer, 48 hours, read-out: Compound EC50
# Experimental: as §1
# KM-12 = conditions: Homo sapiens, KM12, Colon cancer, 48 hours, read-out: Compound EC50
# Experimental: as §1
# LOX IMVI = conditions: Homo sapiens, Melanoma, 48 hours, read-out: Compound EC50
# Experimental: as §1
# M14 = conditions: Homo sapiens, Melanoma, 48 hours, read-out: Compound EC50
# Experimental: as §1
# MALME-3M = conditions: Homo sapiens, Melanoma, 48 hours, read-out: Compound EC50
# Experimental: as §1
# MDA-MB-231 = conditions: Homo sapiens, Breast Cancer, 48 hours, read-out: Compound EC50
# Experimental: as §1
# MDA-MB-435 = conditions: Homo sapiens, Melanoma, 48 hours, read-out: Compound EC50
# Experimental: as §1
# MDA-MB-468 = conditions: Homo sapiens, Breast cancer, 48 hours, read-out: Compound EC50
# Experimental: as §1
# NCI-H23 = conditions: Homo sapiens, Lung cancer, 48 hours, read-out: Compound EC50
# Experimental: as §1
# NCI-H322M = conditions: Homo sapiens, Lung cancer, 48 hours, read-out: Compound EC50
# Experimental: as §1
# NCI-H522 = conditions: Homo sapiens, Lung Cancer, 48 hours, read-out: Compound EC50
# Experimental: as §1
# OVCAR-5 = conditions: Homo sapiens, Ovarian Cancer, 48 hours, read-out: Compound EC50
# Experimental: as §1
# OVCAR-8 = conditions: Homo sapiens, Ovarian Cancer, 48 hours, read-out: Compound EC50
# Experimental: as §1
# RXF-393 = conditions: Homo sapiens, Renal cancer, 48 hours, read-out: Compound EC50
# Experimental: as §1
# SF-268 = conditions: Homo sapiens, CNS, 48 hours, read-out: Compound EC50
# Experimental: as §1
# SF-295 = conditions: Homo sapiens, CNS, 48 hours, read-out: Compound EC50
# Experimental: as §1
# SF-539 = conditions: Homo sapiens, CNS, 48 hours, read-out: Compound EC50
# Experimental: as §1
# SK-MEL-28 = conditions: Homo sapiens, Melanoma, 48 hours, read-out: Compound EC50
# Experimental: as §1
# SK-MEL-5 = conditions: Homo sapiens, Melanoma, 48 hours, read-out: Compound EC50
# Experimental: as §1
# SK-OV-3 = conditions: Homo sapiens, Ovarian, 48 hours, read-out: Compound EC50
# Experimental: as §1
# SN12C = conditions: Homo sapiens, Renal cancer, 48 hours, read-out: Compound EC50
# Experimental: as §1
# SNB-19 = conditions: Homo sapiens, CNS, 48 hours, read-out: Compound EC50
# Experimental: as §1
# SNB-75 = conditions: Homo sapiens, CNS, 48 hours, read-out: Compound EC50
# Experimental: as §1
# TK-10 = conditions: Homo sapiens, Renal cancer, 48 hours, read-out: Compound EC50
# Experimental: as §1
# U251 = conditions: Homo sapiens, U-251, CNS, 48 hours, read-out: Compound EC50
# Experimental: as §1
# UACC-257 = conditions: Homo sapiens, Melanoma, 48 hours, read-out: Compound EC50
# Experimental: as §1
# UACC-62 = conditions: Homo sapiens, Melanoma, 48 hours, read-out: Compound EC50
# Experimental: as §1
# UO-31 = conditions: Homo sapiens, Renal cancer, 48 hours, read-out: Compound EC50
# Experimental: as §1
compound,measurement,setting,value
CN(C)CCCS(=O)(=O)N1C/C(=C\c2ccc(C#N)cc2)C(=O)/C(=C/c2ccc(C#N)cc2)C1 [Compound AA],EC50,CAKI-1,≥ 1 µM
same,EC50,EKVX,0.3 to 1 µM
same,EC50,HCC-2998,0.3 to 1 µM
same,EC50,HOP-62,0.3 to 1 µM
same,EC50,HOP-92,0.3 to 1 µM
same,EC50,HT-29,0.3 to 1 µM
same,EC50,IGR-OV1,< 0.3 µM
same,EC50,KM-12,< 0.3 µM
same,EC50,LOX IMVI,< 0.3 µM
same,EC50,M14,< 0.3 µM
same,EC50,MALME-3M,< 0.3 µM
same,EC50,MDA-MB-231,< 0.3 µM
same,EC50,MDA-MB-435,< 0.3 µM
same,EC50,MDA-MB-468,< 0.3 µM
same,EC50,NCI-H23,0.3 to 1 µM
same,EC50,NCI-H322M,0.3 to 1 µM
same,EC50,NCI-H522,< 0.3 µM
same,EC50,OVCAR-5,< 0.3 µM
same,EC50,OVCAR-8,< 0.3 µM
same,EC50,RXF-393,≥ 1 µM
same,EC50,SF-268,< 0.3 µM
same,EC50,SF-295,< 0.3 µM
same,EC50,SF-539,< 0.3 µM
same,EC50,SK-MEL-28,< 0.3 µM
same,EC50,SK-MEL-5,< 0.3 µM
same,EC50,SK-OV-3,< 0.3 µM
same,EC50,SN12C,< 0.3 µM
same,EC50,SNB-19,< 0.3 µM
same,EC50,SNB-75,0.3 to 1 µM
same,EC50,TK-10,0.3 to 1 µM
same,EC50,U251,< 0.3 µM
same,EC50,UACC-257,0.3 to 1 µM
same,EC50,UACC-62,< 0.3 µM
same,EC50,UO-31,0.3 to 1 µM
